Activity calls are given as the source filed them.
What was measured:
[1] = molecular target: Melanin-concentrating hormone receptor 1 (Homo sapiens, UniProt Q99705); experiment: Late-stage fluorescence-based counterscreen for antagonists of the G-protein coupled receptor 7 (GPR7): cell-based dose response assay to identify antagonists of the melanin-concentrating hormone receptor 1 (MCHR1) Set 5.; assay type: functional
[2] = molecular target: T1, Neuropeptides B/W receptor type 1 (Homo sapiens, UniProt P48145); experiment: GPR7 antagonist potency, late-stage follow-up, cell-based, fluorescence, dose response, set 5 (AID 588566); assay type: functional
T1 sequence (P48145 whole entry): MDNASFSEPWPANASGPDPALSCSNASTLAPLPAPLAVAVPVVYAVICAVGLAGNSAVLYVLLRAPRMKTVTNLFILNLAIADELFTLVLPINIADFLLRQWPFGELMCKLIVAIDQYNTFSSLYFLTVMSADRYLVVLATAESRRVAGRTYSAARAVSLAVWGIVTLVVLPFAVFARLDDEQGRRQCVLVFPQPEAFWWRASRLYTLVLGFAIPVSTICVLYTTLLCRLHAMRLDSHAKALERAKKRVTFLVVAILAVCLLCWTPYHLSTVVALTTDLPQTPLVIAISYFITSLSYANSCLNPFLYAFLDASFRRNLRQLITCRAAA

[3] = molecular target: Latent membrane protein 1 (Human herpesvirus 4 (strain B95-8), UniProt P03230); experiment: TES1-eGFP NF-kB reporter inhibition versus Tet-On dsRED, dose response, selectivity assay for LMP1 NF-kB inhibitor project, imaging, HEK293T, dual-color eGFP/dsRED, cherry-picks (AID 588398); assay type: functional, cell-based
Latent membrane protein 1, sequence (P03230 whole entry): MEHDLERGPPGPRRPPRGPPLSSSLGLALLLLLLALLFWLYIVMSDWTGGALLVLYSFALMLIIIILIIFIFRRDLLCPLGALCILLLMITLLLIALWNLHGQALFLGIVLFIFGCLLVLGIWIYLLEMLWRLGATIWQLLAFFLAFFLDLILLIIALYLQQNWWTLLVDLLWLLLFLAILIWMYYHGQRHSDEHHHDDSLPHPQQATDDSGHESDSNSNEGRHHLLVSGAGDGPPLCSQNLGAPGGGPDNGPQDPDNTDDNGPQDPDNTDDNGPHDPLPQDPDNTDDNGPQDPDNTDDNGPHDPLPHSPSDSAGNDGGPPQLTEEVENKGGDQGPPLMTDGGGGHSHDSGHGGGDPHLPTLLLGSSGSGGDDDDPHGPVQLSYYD

[4] = molecular target: Mitochondrial peptide methionine sulfoxide reductase (Bos taurus, UniProt P54149); assay type: functional;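 further: absorbance read-out, biochemical high-throughput dose-response screen for MsrA inhibitors, confirmatory; recombinant bovine MsrA coupled to E. coli TrxB with NADPH and selenocystamine; potency is for inhibitors of MsrA activity on DMSO substrate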
Mitochondrial peptide methionine sulfoxide reductase, sequence (P54149 whole entry): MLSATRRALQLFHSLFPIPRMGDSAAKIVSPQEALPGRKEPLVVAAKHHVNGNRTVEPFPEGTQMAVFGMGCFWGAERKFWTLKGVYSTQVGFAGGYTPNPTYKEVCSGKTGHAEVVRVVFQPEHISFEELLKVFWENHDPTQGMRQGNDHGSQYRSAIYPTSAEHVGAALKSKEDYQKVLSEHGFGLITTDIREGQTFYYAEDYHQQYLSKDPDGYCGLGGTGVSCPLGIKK

[5] = molecular target: T2, Apoptotic protease-activating factor 1 (Homo sapiens, UniProt O14727); experiment: SAR analysis of small molecule Activators of Apaf-1 in a Fluorescent assay.; assay type: functional; settings: read-out: EC50_Mean;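 further: caspase-3 cleavage of fluorogenic Rh110 DEVD substrate downstream of apoptosome activation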
T2 sequence (O14727 whole entry): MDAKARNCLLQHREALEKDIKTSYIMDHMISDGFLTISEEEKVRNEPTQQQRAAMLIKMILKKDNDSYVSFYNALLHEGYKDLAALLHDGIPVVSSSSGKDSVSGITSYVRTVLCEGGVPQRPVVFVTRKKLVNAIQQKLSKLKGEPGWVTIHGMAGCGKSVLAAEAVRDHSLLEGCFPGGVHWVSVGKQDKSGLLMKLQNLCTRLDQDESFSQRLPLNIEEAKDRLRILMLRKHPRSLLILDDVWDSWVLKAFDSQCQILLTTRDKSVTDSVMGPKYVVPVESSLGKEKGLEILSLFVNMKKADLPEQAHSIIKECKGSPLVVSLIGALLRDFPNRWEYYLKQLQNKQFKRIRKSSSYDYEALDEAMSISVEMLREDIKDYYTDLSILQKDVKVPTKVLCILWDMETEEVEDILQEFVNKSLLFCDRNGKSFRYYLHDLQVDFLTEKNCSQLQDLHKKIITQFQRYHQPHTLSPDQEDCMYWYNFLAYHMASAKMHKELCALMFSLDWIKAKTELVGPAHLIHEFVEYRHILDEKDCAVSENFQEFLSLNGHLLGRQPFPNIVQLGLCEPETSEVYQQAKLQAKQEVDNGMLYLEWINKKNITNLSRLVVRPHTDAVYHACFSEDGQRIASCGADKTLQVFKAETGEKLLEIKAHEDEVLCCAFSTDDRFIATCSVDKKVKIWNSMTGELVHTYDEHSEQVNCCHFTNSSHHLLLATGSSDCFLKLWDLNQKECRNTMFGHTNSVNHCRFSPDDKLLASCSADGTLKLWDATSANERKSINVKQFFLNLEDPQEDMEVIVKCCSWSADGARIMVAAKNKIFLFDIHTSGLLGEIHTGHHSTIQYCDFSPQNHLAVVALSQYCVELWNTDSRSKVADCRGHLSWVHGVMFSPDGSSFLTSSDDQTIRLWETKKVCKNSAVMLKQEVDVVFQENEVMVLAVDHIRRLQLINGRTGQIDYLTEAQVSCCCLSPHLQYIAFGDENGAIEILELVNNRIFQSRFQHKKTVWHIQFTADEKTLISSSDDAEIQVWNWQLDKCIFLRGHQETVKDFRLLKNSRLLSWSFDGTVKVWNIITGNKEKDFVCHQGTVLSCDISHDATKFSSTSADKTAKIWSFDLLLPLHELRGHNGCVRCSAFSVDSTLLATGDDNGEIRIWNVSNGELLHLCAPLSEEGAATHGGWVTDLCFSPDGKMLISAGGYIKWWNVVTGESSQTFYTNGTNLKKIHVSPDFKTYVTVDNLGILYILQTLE

[6] = THP-1 cell cytotoxicity, cytotoxicity control, set 4 (AID 504911); assay type: functional; settings: Mycobacterium tuberculosis
HEK293 = experiment: inhibitors of LMP1-driven NF-kB reporter, dose response, cell-based, HEK293, luciferase, cherry-pick (AID 588343); assay type: functional; settings: Homo sapiens

Melanin-concentrating hormone receptor 1, sequence (Q99705 whole entry): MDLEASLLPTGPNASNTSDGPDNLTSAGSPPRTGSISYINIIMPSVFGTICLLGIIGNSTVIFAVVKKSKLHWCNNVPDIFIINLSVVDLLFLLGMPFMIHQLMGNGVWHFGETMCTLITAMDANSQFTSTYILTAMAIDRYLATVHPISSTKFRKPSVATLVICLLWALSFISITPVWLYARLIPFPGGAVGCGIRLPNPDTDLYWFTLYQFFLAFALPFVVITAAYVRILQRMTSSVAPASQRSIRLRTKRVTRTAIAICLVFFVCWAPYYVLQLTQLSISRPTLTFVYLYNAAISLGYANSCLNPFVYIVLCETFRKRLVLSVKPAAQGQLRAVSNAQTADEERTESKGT

**Q.** For `CCOC(=O)C(C#N)c1c(Cl)c(Br)nn(Cc2cccc3ccccc23)c1=O` (stereo not drawn), which IC50 [1] is on record?
**A.** 3.33 µM (active)

**Q.** What about the IC50 [2] of the same molecule?
**A.** 1.45 µM (active)

**Q.** For `COCCCNCC1C(Oc2ccc(Cl)cc2)C(=O)N1c1ccccc1C` (stereo not drawn), which AC50 [3] is on record?
**A.** 28.2 µM (active)

**Q.** With `COC(=O)CC/C(C)=N\Nc1ccc([N+](=O)[O-])cc1[N+](=O)[O-]` as the molecule, how does the IC50 [4] read?
**A.** 155 µM (inactive)

**Q.** For `CCOc1ccccc1NC(=O)CCS(=O)(=O)c1ccc2c(c1)CCN2C(C)=O`, which EC50 [5] is on record?
**A.** > 100 µM (inactive)

**Q.** Which CC50 [6] does the source give for `NC(=O)c1cnccn1` [PYRAZINAMIDE] here?
**A.** > 100 µM (active)

**Q.** With `Nc1nc2ccccc2n1C(=O)c1ccccc1` as the molecule, how does the AC50 [3] read?
**A.** 108 µM (active)

**Q.** What about the AC50 (HEK293) of the same molecule?
**A.** 5.38 µM (active)
